# Molecular target: T1, human Edg-1 (S1P1) (Homo sapiens, UniProt P21453)
# T1 construct: expressed in transfected cells; host or cells: HEK-293
# Test: S1P1 binding assay: inhibition of [33P]-S1P binding to membrane fraction of HEK-293 cells transferred with the human Edg-1 (S1P1) gene
# Conditions: test compound at 10 μM; inhibition of [33P]-S1P binding to the membrane fraction of HEK-293 cells expressing human Edg-1 (S1P1)
# Description: The membrane fraction was obtained by treating the cells with a solubilizing buffer (1 mM Tris/HCl, pH 7.2) for 10 minutes on ice, centrifuging at 1000×g for 5 minutes to remove insoluble fractions, and then centrifuging at 40000×g for 30 minutes at 4° C. The resulting membrane fraction was dissolved in a binding buffer (20 mM Tris-HCl, pH 7.4, 100 mM NaCl, 15 mM NaF, 2 mM deoxypyridoxine, 4 mg/mL fatty acid-free BSA), and then [^33P]-S1P (manufactured by ARC, final concentration 0.1 nM) and a DMSO solution (final concentration of the compound 10^−5M, final concentration of DMSO 0.1%) of the test compound were added. Thereafter, the mixture was stirred and then treated for one hour at 30° C. Using a harvester, the membrane fraction was harvested onto unifilter-96 GF/C filter (manufactured by Perkin Elmer), washing was carried out four times with the binding buffer, and the filter was dried. Twenty five μL Microscint 0 (manufactured by Perkin Elmer) was added, and radioactivity was measured using Top Count NXT (manufactured by Packard) to calculate the amount (A) of [^33P]-S1P bound to the membrane fraction at the time when the compound was added.
# The same procedure was carried out in the absence of the test compound, and the amount (B) of [^33P]-S1P bound was calculated. Further, the same procedure was carried out in the absence of the test compound by use of HEK-293 cells to which no Edg-1 (S1P1) gene was introduced, and the background amount (C) of [^33P]-S1P bound was calculated.
# Inhibition rate (%)=[1−(A−C)/(B−C)]×100
# Further, concentrations (IC50) at the time when binding in the absence of the test compound was inhibited by 50% were calculated. The membrane system binding assay was carried out in the presence of test compounds with various concentrations, and the Edg-1 (S1P1) binding inhibition rates were calculated using the equation above. Then, IC50 values were calculated using Origin (Lightstone Corp.), a software for data analysis.
# T1 sequence (P21453 whole entry): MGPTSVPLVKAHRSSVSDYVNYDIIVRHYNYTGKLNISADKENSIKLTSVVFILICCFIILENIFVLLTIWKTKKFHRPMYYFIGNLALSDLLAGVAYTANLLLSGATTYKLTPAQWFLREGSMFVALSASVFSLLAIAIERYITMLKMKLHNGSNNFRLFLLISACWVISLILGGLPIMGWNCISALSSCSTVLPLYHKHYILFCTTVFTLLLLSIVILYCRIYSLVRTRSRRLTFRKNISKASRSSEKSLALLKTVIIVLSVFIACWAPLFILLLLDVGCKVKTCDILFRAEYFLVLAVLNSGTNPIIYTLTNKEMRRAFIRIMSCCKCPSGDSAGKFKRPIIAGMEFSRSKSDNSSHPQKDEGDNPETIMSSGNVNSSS
row,SMILES,inhibition at 10 µM
1,CCn1c(Oc2ccc(F)cc2)nnc1[C@@H](C)NS(=O)(=O)c1ccc(Cl)c(Cl)c1Cl [Compound 207],108%
2,CCn1c(Oc2ccc(F)cc2)nnc1C(C)(C)NS(=O)(=O)c1c(C)c(C)cc(C)c1C [Compound 208],80.2%
3,CCn1c(Oc2ccc(F)cc2)nnc1[C@@H](C)NS(=O)(=O)c1cccc(Cl)c1Cl [Compound 209],91.4%
4,CCn1c(Oc2ccc(F)cc2)nnc1[C@@H](C)NS(=O)(=O)c1cc(C(F)(F)F)cc(C(F)(F)F)c1 [Compound 212],69.7%
5,CCn1c(Oc2ccc(F)cc2)nnc1[C@@H](C)NS(=O)(=O)c1cc(Cl)cc(Cl)c1 [Compound 213],102%
6,CCn1c(Oc2ccc(F)cc2)nnc1[C@@H](C)NS(=O)(=O)c1cccc(Cl)c1C [Compound 214],102%
7,CCn1c(Oc2ccc(F)cc2)nnc1[C@@H](C)NS(=O)(=O)c1cccc(OC)c1 [Compound 215],91.4%
8,CCn1c(Oc2ccc(F)cc2)nnc1[C@@H](C)NS(=O)(=O)c1cc(F)c(Br)cc1F [Compound 216],88.9%
9,CCn1c(Oc2ccc(F)cc2)nnc1[C@@H](C)NS(=O)(=O)c1cc(Br)ccc1OC [Compound 218],74.7%
10,CCn1c(Oc2ccc(F)cc2)nnc1[C@@H](C)NS(=O)(=O)c1cc(F)ccc1C [Compound 219],70.8%
11,Cc1c(C)c(C)c(S(=O)(=O)N[C@H](C)c2nnc(Oc3ccc(F)cc3)n2C)c(C)c1C [Compound 220],93.7%
12,CCn1c(Oc2ccc(F)cc2)nnc1[C@@H](C)NS(=O)(=O)c1cc(C)ccc1OC [Compound 221],69.2%
13,CCn1c(Oc2ccc(F)cc2)nnc1[C@@H](C)NS(=O)(=O)c1ccc(C#N)cc1 [Compound 223],90.8%
14,CCn1c(Oc2ccc(F)cc2)nnc1[C@@H](C)NS(=O)(=O)c1ccc(Cl)cc1Cl [Compound 226],80.4%
15,CCn1c(Oc2ccc(F)cc2)nnc1[C@@H](C)NS(=O)(=O)c1ccc(F)cc1F [Compound 227],51.4%
16,CCn1c(Oc2ccc(F)cc2)nnc1[C@@H](C)NS(=O)(=O)c1cc(OC)ccc1OC [Compound 228],53.9%
17,CCn1c(Oc2ccc(F)cc2)nnc1[C@@H](C)NS(=O)(=O)c1cccc(Cl)c1 [Compound 231],65.1%
18,CCn1c(Oc2ccc(F)cc2)nnc1[C@@H](C)NS(=O)(=O)c1ccc(C(C)C)cc1 [Compound 232],68.7%
19,CCn1c(Oc2ccc(F)cc2)nnc1[C@@H](C)NS(=O)(=O)c1cc(F)cc(Cl)c1C [Compound 233],87.1%
20,CCc1cc(Br)ccc1S(=O)(=O)N[C@H](C)c1nnc(Oc2ccc(F)cc2)n1CC [Compound 234],50.6%
21,CCn1c(Oc2ccc(F)cc2)nnc1[C@@H](C)NS(=O)(=O)c1ccc(Br)cc1C [Compound 235],82.9%

row,SMILES,inhibition at 10 µM
1,CCn1c(Oc2ccc(F)cc2)nnc1[C@@H](C)NS(=O)(=O)c1ccc(F)c(F)c1F [Compound 237],64.8%
2,CCn1c(Oc2ccc(F)cc2)nnc1[C@@H](C)NS(=O)(=O)c1cc(F)c(F)cc1Cl [Compound 240],82.5%
3,CCn1c(Oc2ccc(F)cc2)nnc1[C@@H](C)NS(=O)(=O)c1ccc(F)c(F)c1 [Compound 241],95.8%
4,CCn1c(Oc2ccc(F)cc2)nnc1[C@@H](C)NS(=O)(=O)c1ccc(Br)cc1F [Compound 242],85.9%
5,CCn1c(Oc2ccc(F)cc2)nnc1[C@@H](C)NS(=O)(=O)c1cc(F)c(Cl)cc1F [Compound 243],90%
6,CCn1c(Oc2ccc(F)cc2)nnc1[C@@H](C)NS(=O)(=O)c1cc(Br)c(F)cc1F [Compound 244],94.6%
7,CCn1c(Oc2ccc(F)cc2)nnc1[C@@H](C)NS(=O)(=O)c1cc(Cl)c(F)cc1F [Compound 245],89.3%
8,CCn1c(Oc2ccc(F)cc2)nnc1[C@@H](C)NS(=O)(=O)c1cc(C)c(Cl)cc1Cl [Compound 248],105%
9,CCn1c(Oc2ccc(F)cc2)nnc1[C@@H](C)NS(=O)(=O)c1cc(C(F)(F)F)ccc1Cl [Compound 251],59%
10,CCn1c(Oc2ccc(F)cc2)nnc1[C@@H](C)NS(=O)(=O)c1cccc(F)c1 [Compound 252],82.8%
11,CCn1c(Oc2ccc(F)cc2)nnc1[C@@H](C)NS(=O)(=O)c1cc(Cl)ccc1OC [Compound 254],75.1%
12,CCn1c(Oc2ccc(F)cc2)nnc1[C@@H](C)NS(=O)(=O)c1c(C)cc(Cl)cc1Cl [Compound 255],86.4%
13,CCn1c(Oc2ccc(F)cc2)nnc1[C@@H](C)NS(=O)(=O)c1cc(F)c(F)cc1F [Compound 256],85.2%
14,CCn1c(Oc2ccc(F)cc2)nnc1[C@@H](C)NS(=O)(=O)c1cc(Br)ccc1Br [Compound 257],78.2%
15,CCn1c(Oc2ccc(F)cc2)nnc1[C@@H](C)NS(=O)(=O)c1ccc(-c2ccno2)s1 [Compound 258],67.9%
16,CCn1c(Oc2ccc(F)cc2)nnc1[C@@H](C)NS(=O)(=O)c1ccc(Br)cc1Br [Compound 260],74.1%
17,CCn1c(Oc2ccc(F)cc2)nnc1[C@@H](C)NS(=O)(=O)c1ccc(F)c(C#N)c1 [Compound 261],73.6%
18,CCn1c(Oc2ccc(F)cc2)nnc1[C@@H](C)NS(=O)(=O)c1cc(C)cc(C)c1 [Compound 262],79.6%
19,CCn1c(Oc2ccc(F)cc2)nnc1[C@@H](C)NS(=O)(=O)c1ccc(OC(F)F)cc1 [Compound 263],82.6%
20,CCn1c(Oc2ccc(F)cc2)nnc1[C@@H](C)NS(=O)(=O)c1cccc(OC(F)F)c1 [Compound 264],95.9%
21,CCn1c(Oc2ccc(F)cc2)nnc1[C@@H](C)NS(=O)(=O)c1c(F)cc(F)cc1Br [Compound 265],59.1%

row,SMILES,inhibition at 10 µM
1,CCn1c(Oc2ccc(F)cc2)nnc1[C@@H](C)NS(=O)(=O)c1cc(F)cc(F)c1 [Compound 266],99%
2,CCn1c(Oc2ccc(F)cc2)nnc1[C@@H](C)NS(=O)(=O)c1ccc(Cl)cc1F [Compound 267],89.6%
3,CCn1c(Oc2ccc(F)cc2)nnc1[C@@H](C)NS(=O)(=O)c1cc(F)c(F)c(F)c1 [Compound 268],99.9%
4,CCn1c(Oc2ccc(F)cc2)nnc1[C@@H](C)NS(=O)(=O)c1ccc(F)cc1Br [Compound 269],91.5%
5,CCn1c(Oc2ccc(F)cc2)nnc1[C@@H](C)NS(=O)(=O)c1ccc(C(F)(F)F)cc1Br [Compound 270],73%
6,CCn1c(Oc2ccc(F)cc2)nnc1[C@@H](C)NS(=O)(=O)c1cc(C(F)(F)F)ccc1Br [Compound 271],57.1%
7,CCn1c(Oc2ccc(F)cc2)nnc1[C@@H](C)NS(=O)(=O)c1ccc(C)c(F)c1 [Compound 272],104%
8,CCn1c(Oc2ccc(F)cc2)nnc1[C@@H](C)NS(=O)(=O)c1ccc(F)cc1C [Compound 273],71.6%
9,CCn1c(Oc2ccc(F)cc2)nnc1[C@@H](C)NS(=O)(=O)c1cc(Cl)ccc1F [Compound 274],53.5%
10,CCn1c(Oc2ccc(F)cc2)nnc1[C@@H](C)NS(=O)(=O)c1ccc(Br)c(F)c1 [Compound 275],107%
11,CCn1c(Oc2ccc(F)cc2)nnc1[C@@H](C)NS(=O)(=O)c1ccc(Br)cc1Cl [Compound 276],94.4%
12,CCn1c(Oc2ccc(F)cc2)nnc1[C@@H](C)NS(=O)(=O)c1cc(C)ccc1F [Compound 279],79.6%
13,CCn1c(Oc2ccc(F)cc2)nnc1[C@@H](C)NS(=O)(=O)c1cccc(Cl)c1F [Compound 280],87.3%
14,CCn1c(Oc2ccc(F)cc2)nnc1[C@@H](C)NS(=O)(=O)CC1CCCCC1 [Compound 286],60.6%
15,CCn1c(Oc2ccc(F)cc2)nnc1[C@@H](C)NS(=O)(=O)c1ccc2c(c1)OCCO2 [Compound 289],106%
16,CCn1c(Oc2ccc(F)cc2)nnc1[C@@H](C)NS(=O)(=O)c1ccc2nsnc2c1 [Compound 292],107%
17,CCn1c(Oc2ccc(F)cc2)nnc1[C@@H](C)NS(=O)(=O)c1ccsc1 [Compound 294],50.8%
18,CCn1c(Oc2ccc(F)cc2)nnc1[C@@H](C)NS(=O)(=O)c1cc(C)sc1C [Compound 300],82.1%
19,CCn1c(Oc2ccc(F)cc2)nnc1[C@@H](C)NS(=O)(=O)c1ccc(OC)cc1OC [Compound 301],78.8%
20,CCn1c(Oc2ccc(F)cc2)nnc1[C@@H](C)NS(=O)(=O)c1ccc(C(F)(F)F)cc1Cl [Compound 303],77.4%
21,CCn1c(Oc2ccc(F)cc2)nnc1[C@@H](C)NS(=O)(=O)c1cccc(C(C)=O)c1 [Compound 306],60.2%
